Earlier results, collected in patent publication US8053002B2, “Medicinal herbal composition for treating infection” (priority 2005, dated 2011).

Legend:
[1] = test system: herpes simplex virus (HSV-2)
[2] = target: HIV-1 reverse transcriptase (Human immunodeficiency virus type 1 group M subtype B, UniProt P03366)

| Compound | anti-herpes simplex virus (HSV-2) activity in vitro [1] | effect on HIV-1 reverse transcriptase activity [2] | further results |
| --- | --- | --- | --- |
| O=C(O[C@@H]1O[C@@H]2COC(=O)c3cc(O)c(O)c(O)c3-c3c(cc(O)c(O)c3O)C(=O)O[C@H]2[C@H](OC(=O)c2cc(O)c(O)c(O)c2)[C@H]1OC(=O)c1cc(O)c(O)c(O)c1)c1cc(O)c(O)c(O)c1 [Eugeniin] | exhibited anti-herpes simplex virus (HSV-2) activity |  |  |
| Prunellin |  |  | minimum inhibition concentration against HIV-1 in vitro (HIV-1): 2.2 µg/mL |
| O=c1cc(-c2ccc(O)cc2)oc2cc(O)cc(O)c12 [5,7,4-truhydroxyflavone] |  |  | anti-influenza virus activity (influenza virus): anti-influenza virus activity |
| COc1cc2cc3c(c(-c4ccc5c(c4)OCO5)c2cc1OC)COC3=O [retrojusticiden B] |  | inhibitory effect |  |
| COCc1cc2cc(OC)c(OC)cc2c(-c2ccc3c(c2)OCO3)c1C=O [phyllamycin B] |  | inhibitory effect |  |
| COC(=O)c1cc(O)c(O)c(O)c1 [methyl gallate] | exhibited anti-herpes simplex virus (HSV-2) activity |  |  |
